Measurements: paper PMC8640510 (Cell Death and Differentiation, 2021)
“Also recorded” adds a separate entry of the source.

Molecular target: SARS-CoV-2 NSP14/10 complex (ExoN activity) (Severe acute respiratory syndrome coronavirus 2, UniProt P0DTD1)
Experiment: biochemical
Type: biochemical

Structure (SMILES)	NSP14/10-inhibitory activity (in words)	IC50
Cc1ccc2ccc(C(=O)O)c(O)c2n1 [#38]	no observed inhibition; also recorded: does not inhibit NSP14	–
CC(C)=CCc1c(O)ccc(C(=O)/C=C/c2ccc(O)cc2)c1O [#96, Isobavachalcone]	–	17.4 ± 1.39 µM
CC(C)=CCOc1ccc(/C=C/C(=O)c2ccc(OCC=C(C)C)cc2OCC(=O)O)cc1 [#102, Sofalcone, reference compound]	–	22 ± 6.02 µM
C[C@@H]1CCO[C@H]2Cn3cc(C(=O)NCc4ccc(F)cc4F)c(=O)c(O)c3C(=O)N12 [Dolutegravir, reference compound]	detectable NSP14/10-inhibitory activities	–
O=C1Cc2ccccc2C(=O)N1O [N-Hydroxy-isoquinoline-1,3-dione, reference compound]	detectable NSP14/10-inhibitory activities	–
